From patent US5244908A, “Imidazopyridine derivatives and their pharmaceutical use” (Takeda Chemical Industries, Ltd., priority 1990, dated 1993)
Each block holds one compound with its values, some of them ahead of it.

Tests used:
[1] = system: endothelial cells (HUVE cells); experiment: Effect on growth of endothelial cells (HUVE cells, basic FGF, MTT method); type: cell-based; settings: Homo sapiens, Endothelial cell, 72 h, basic FGF 2 ng/ml, 3 days, read-out: IC50 (concentration inhibiting growth of endotherial cells by 50%)
Description: This experiment was conducted by using endothelial cells (HUVE cells) obtained from human umbilical vein. […] After 24 hours, human recombinant basic FGF (endotherial cell growth factor) was added thereto in the final concentration of 2 ng/ml and a test compound was further added, followed by cultivation for 3 days.

calmodulin = calmodulin (Bos taurus, UniProt P62157); experiment: Calmodulin inhibitory activity (calmodulin-activated cyclic nucleotide phosphodiesterase, [3H]cGMP); type: biochemical; settings: 10^-5 M
[2] = system: spontaneous hypertensive rat (SHR); experiment: Hypotensive activity in spontaneous hypertensive rat (SHR), Plethysmograph method; type: in vivo; settings: SHR male rats, oral, 100 mg/kg; for Change of blood pressure, 1 hour: 1 hour after administration; for Change of blood pressure, 5 hours: 5 hours after administration
Description: Hypotensive activity in spontaneous hypertensive rat (SHR)
SHR male rats of twenty weeks old were used. They were warmed in an incubator at 37° C. for 5 minutes and the measurement was conducted according to Plethysmograph method. Medicines (the compounds in the above Examples) were suspended in gum arabic-water and were orally administered in an amount of 2.5 ml/kg. Blood pressure was measured before administration of medicines, at 1 hour and at 5 hours after administration, and the change of the value from that before administration was determined, respectively.

rat heart = experiment: Effect on incidence of arrhythmia caused by ischemia and following reperfusion in rat heart; type: in vivo; settings: 1 hour before ligation, until 10 minutes after reperfusion
Description: Effect on incidence of arrhythmia caused by ischemia and following reperfusion in rat heart
Male Sprague Dawley rats (Japan Clea) of 9 to 10 weeks old were anesthetized with 50 mg/kg (i.p.) of sodium pentobarbital. The heart was exposed by a left thoractomy under artificial ventilation with room air and silk suture was placed under the main left coronary artery (LAD) to ligate for 5 minutes. Then, the ligature was released again for reperfusion. The incidence of ventricular tachycardia (VT), ventricular fibrillation (VF) and cardiac arrest (CA) caused until 10 minutes after reperfusion were noted. Medicines (compounds obtained in the above Examples) were orally administered (5 ml/kg) at 1 hour before tightening the ligature. The effect of medicines were estimated in comparison with the frequency of a group received a vehicle according to X^2 -test.

rat kidneys = experiment: Effect on acute renal failure caused by ischemia and following reperfusion in rat kidneys; type: in vivo; settings: 1 hour before occlusion, 20 hours after reperfusion
Description: Effect on acute renal failure caused by ischemia and following reperfusion in rat kidneys.
SD rats (male) of 6 to 7 weeks old were anesthetized with pentobarbital sodium (50 mg/kg, i.p.) and bilateral renal arteries were ligated. After 45 minutes, a clip was removed to reperfuse. After 20 hours, blood was collected from abdominal aorta under anesthesia with pentobarbital sodium and blood urea nitrogen (BUN) was measured. Medicines (compounds obtained in the above Examples) were orally administered (5 ml/kg) 1 hour before occulusion of renal artery.

[3] = system: experimental ischemic disorders; settings: in vivo; cited from earlier work

Compound: CC(C)OC(=O)NCCSc1cccc2nccn12 [21']
IC50 [1]: 5 µM

Compound: CS(=O)(=O)NCCSc1cccc2nccn12 [Compound 1, 5-[2-(methylsulfonylamino)ethylthio]imidazo[1,2-a]pyridine]
inhibition at 10 µM (calmodulin): 94% | Change of blood pressure, 1 hour [2]: -11.2 mmHg | Change of blood pressure, 5 hours [2]: -11.5 mmHg | CA (Frequency), cardiac arrest (rat heart; 10 mg/kg oral): 1/4 | VF (Frequency), ventricular fibrillation (rat heart; 10 mg/kg oral): 2/4 | VT (Frequency), ventricular tachycardia (rat heart; 10 mg/kg oral): 2/4 | CA (Frequency), cardiac arrest (rat heart; 30 mg/kg oral): 0/4 | VF (Frequency), ventricular fibrillation (rat heart; 30 mg/kg oral): 1/4 | VT (Frequency), ventricular tachycardia (rat heart; 30 mg/kg oral): 1/4 | Blood urea nitrogen (rat kidneys; 10 mg/kg oral): 83.3 ± 20.4 mg/dL | Blood urea nitrogen (rat kidneys; 30 mg/kg oral): 71.1 ± 11.4 mg/dL | Blood urea nitrogen (rat kidneys; 50 mg/kg oral): 65.6 ± 5.1 mg/dL

Compound: CS(=O)(=O)NCCSc1cccc2ncc(CN3CCOCC3)n12 [Compound 14, 5-[2-(methylsulfonylamino)ethylthio]3-morpholinomethylimidazo[1,2-a]pyridine]
inhibition at 10 µM (calmodulin): 85% | CA (Frequency), cardiac arrest (rat heart; 10 mg/kg oral): 0/3 | VF (Frequency), ventricular fibrillation (rat heart; 10 mg/kg oral): 0/3 | VT (Frequency), ventricular tachycardia (rat heart; 10 mg/kg oral): 1/3

Compound: O=S(=O)(NCCSc1cccc2nccn12)C(F)(F)F [Compound 26, 5-[2-(Trifluoromethylsulfonylamino)ethylthio]imidazo[1,2-a]pyridine]
inhibition at 10 µM (calmodulin): 100% | CA (Frequency), cardiac arrest (rat heart; 10 mg/kg oral): 1/3 | VF (Frequency), ventricular fibrillation (rat heart; 10 mg/kg oral): 1/3 | VT (Frequency), ventricular tachycardia (rat heart; 10 mg/kg oral): 2/3

Compound: O=S(=O)(NCCCSc1cccc2nccn12)C(F)(F)F [Compound 28, 5-[3-(Trifluoromethylsulfonylamino)propylthio]imidazo[1,2-a]pyridine]
inhibition at 10 µM (calmodulin): 72% | Change of blood pressure, 1 hour [2]: -13.5 mmHg | Change of blood pressure, 5 hours [2]: -43.0 mmHg

Compound: CC(=O)Nc1ccc(S(=O)(=O)NCCSc2cccc3nccn23)cc1 [Compound 32, 5-[2-[4-(Acetamido)phenylsulfonylamino]ethylthio]imidazo[1,2-a]pyridine]
inhibition at 10 µM (calmodulin): 62% | CA (Frequency), cardiac arrest (rat heart; 30 mg/kg oral): 1/3 | VF (Frequency), ventricular fibrillation (rat heart; 30 mg/kg oral): 1/3 | VT (Frequency), ventricular tachycardia (rat heart; 30 mg/kg oral): 1/3

Compound: CS(=O)(=O)NCCCOc1cccc2nccn12 [Compound 64, 5-[3-(methylsulfonylamino)propyloxy]imidazo[1,2-a]pyridine]
inhibition at 10 µM (calmodulin): 82% | Change of blood pressure, 1 hour [2]: -31.0 mmHg | Change of blood pressure, 5 hours [2]: -27.0 mmHg | CA (Frequency), cardiac arrest (rat heart; 30 mg/kg oral): 1/3 | VF (Frequency), ventricular fibrillation (rat heart; 30 mg/kg oral): 1/3 | VT (Frequency), ventricular tachycardia (rat heart; 30 mg/kg oral): 1/3

Compound: O=S(=O)(NCCCCOc1cccc2nccn12)C(F)(F)F [Compound 67, 5-[4-(Trifluoromethylsulfonylamino)butyloxy]imidazo[1,2-a]pyridine]
inhibition at 10 µM (calmodulin): 72% | Change of blood pressure, 1 hour [2]: -15.0 mmHg | Change of blood pressure, 5 hours [2]: -22.0 mmHg

Compound: O=S(=O)(NCCCCCOc1cccc2nccn12)C(F)(F)F [Compound 69, 5-[5-(Trifluoromethylsulfonylamino)pentyloxy]imidazo[1,2-a]pyridine]
inhibition at 10 µM (calmodulin): 57% | Change of blood pressure, 1 hour [2]: -7.0 mmHg | Change of blood pressure, 5 hours [2]: -32.0 mmHg

Compound: O=S(=O)(NCCCOc1cccc2nccn12)c1cccc2ccccc12 [Compound 79, 5-[3-(1-(Naphthyl)sulfonylamino)propyloxy]imidazo[1,2-a]pyridine]
inhibition at 10 µM (calmodulin): 50%

Compound: CC(=O)NCCSc1cccc2nccn12 [Compound 83, 5-[2-(acetylamino)ethylthio]imidazo[1,2-a]pyridine]
inhibition at 10 µM (calmodulin): 76%

Compound: O=C(NCCSc1cccc2nccn12)C(F)(F)F [Compound 84, 5-[2-(Trifluoroacetylamino)ethylthio]imidazo[1,2-a]pyridine]
inhibition at 10 µM (calmodulin): 69%

Compound: O=C(NCCSc1cccc2nccn12)c1ccccc1 [Compound 87, 5-[2-(Benzoylamino)ethylthio]imidazo[1,2-a]pyridine]
inhibition at 10 µM (calmodulin): 51%

Compound: O=C(NCCSc1cccc2nccn12)c1cccs1 [Compound 89, 5-[2-[(2-Thenoylamino)]ethylthio]imidazo[1,2-a]pyridine]
inhibition at 10 µM (calmodulin): 54%

Compound: CN(C)CCCN1c2ccccc2Sc2ccc(Cl)cc21 [chlorpromazine]
effect on experimental ischemic disorders (in words) [3]: effective for experimental ischemic disorders

Second part, led by results:

inhibition at 10 µM (calmodulin): 56%
Compound: CCNC(=O)NCCSc1cccc2nccn12 [Compound 101, 5-[2-(Ethylcarbamoylamino)ethylthio]imidazo[1,2-a]pyridine]

inhibition at 10 µM (calmodulin): 52%
Compound: CCCNC(=O)NCCSc1cccc2nccn12 [Compound 102, 5-[2-(Propylcarbamoylamino)ethylthio]imidazo[1,2-a]pyridine]

inhibition at 10 µM (calmodulin): 52%
Compound: CC(C)NC(=O)NCCSc1cccc2nccn12 [Compound 103, 5-[2-(Isopropylcarbamoylamino)ethylthio]imidazo[1,2-a]pyridine]

inhibition at 10 µM (calmodulin): 67%
Compound: O=C(NCCSc1cccc2nccn12)NC1CCCCC1 [Compound 105, 5-[2-(Cyclohexylcarbamoylamino)ethylthio]imidazo[1,2-a]pyridine]

inhibition at 10 µM (calmodulin): 50%
Compound: COc1ccc(NC(=S)NCCSc2cccc3nccn23)cc1 [Compound 109, 5-[2-[4-(Methoxy)phenylthiocarbamoylamino]ethylthio]imidazo[1,2-a]pyridine]

inhibition at 10 µM (calmodulin): 53%
Compound: Cc1cn2c(SCCNC(=S)Nc3ccccc3)cccc2n1 [Compound 115, 2-Methyl-5-[2-(phenylthiocarbamoylamino)ethylthio]imidazo[1,2-a]pyridine]

inhibition at 10 µM (calmodulin): 74%
Compound: CNC(=O)OCCSc1cccc2nccn12 [Compound 118, 5-[2-(methylcarbamoyloxy)ethylthio]imidazo[1,2-a]pyridine]
CA (Frequency), cardiac arrest (rat heart; 30 mg/kg oral): 0/3 | VF (Frequency), ventricular fibrillation (rat heart; 30 mg/kg oral): 1/3 | VT (Frequency), ventricular tachycardia (rat heart; 30 mg/kg oral): 1/3

inhibition at 10 µM (calmodulin): 57%
Compound: O=C(NCc1ccncc1)OCCSc1cccc2nccn12 [Compound 127, 5-[2-[4-(Pyridyl)methylcarbamoyloxy]ethylthio]imidazo[1,2-a]pyridine]
CA (Frequency), cardiac arrest (rat heart; 30 mg/kg oral): 0/3 | VF (Frequency), ventricular fibrillation (rat heart; 30 mg/kg oral): 1/3 | VT (Frequency), ventricular tachycardia (rat heart; 30 mg/kg oral): 1/3

inhibition at 10 µM (calmodulin): 50%
Compound: COC(=O)NCCSc1cccc2nccn12 [Compound 128, 5-[2-(methoxycarbonylamino)ethylthio]imidazo[1,2-a]pyridine]

inhibition at 10 µM (calmodulin): 50%
Compound: CCCOC(=O)NCCSc1cccc2nccn12 [Compound 130, 5-[2-(Propyloxycarbonylamino)ethylthio]imidazo[1,2-a]pyridine]

inhibition at 10 µM (calmodulin): 50%
Compound: CC(C)OC(=O)NCCSc1cccc2nccn12 [Compound 132, 5-[2-(Isopropyloxycarbonylamino)ethylthio]imidazo[1,2-a]pyridine]

inhibition at 10 µM (calmodulin): 60%
Compound: C=CCOC(=O)NCCSc1cccc2nccn12 [Compound 135, 5-[2-(Allyloxycarbonylamino)ethylthio]imidazo[1,2-a]pyridine]

inhibition at 10 µM (calmodulin): 52%
Compound: O=C(NCCSc1cccc2nccn12)OCC(Cl)(Cl)Cl [Compound 136, 5-[2-[2,2,2-(Trichloro)ethoxycarbonylamino]ethylthio]imidazo[1,2-a]pyridine]

inhibition at 10 µM (calmodulin): 60%
Compound: CC(C)OC(=O)NCCSc1cccc2ncc(CN3CCOCC3)n12 [Compound 144, 5-[2-(Isopropyloxycarbonylamino)ethylthio]-3-(morpholinomethyl)imidazo[1,2-a]pyridine]

inhibition at 10 µM (calmodulin): 63%
Compound: COC(=O)NCCCSc1cccc2nccn12 [Compound 145, 5-[3-(Methoxycarbonylamino)propylthio]imidazo[1,2-a]pyridine]

inhibition at 10 µM (calmodulin): 81%
Compound: CC(=O)N(CCCSc1cccc2nccn12)CCNc1ccccc1 [Compound 158, 5-[3-[[2-(Anilino)ethyl]-N-(acetyl)amino]propylthio]imidazo[1,2-a]pyridine]

inhibition at 10 µM (calmodulin): 65%
Compound: O=S(=O)(N1CCC(Sc2cccc3nccn23)CC1)C(F)(F)F [Compound 165, 5-[1-(trifluoromethanesulfonyl)4-piperidylthio]imidazo[1,2-a]pyridine]

inhibition at 10 µM (calmodulin): 56%
Compound: O=S(=O)(NCCCCSc1cccc2nccn12)c1cccc2ccccc12 [Compound 168, 5-[4-(1-naphthalenesulfonylamino)butylthio]imidazo[1,2-a]pyridine]

inhibition at 10 µM (calmodulin): 58%
Compound: CC(C)OC(=O)NCCCCSc1cccc2nccn12 [Compound 169, 5-[4-(isopropyloxycarbonylamino)butylthio]imidazo[1,2-a]pyridine]
